What was measured:
[1] = set-up: method as in earlier work; conditions: ondansetron 32 mg IV; cited from earlier work
[2] = published QT results for ondansetron; type: in vivo; conditions: 24 mg ondansetron, inferred by authors from published 32 mg data
Experimental: The majority of patients (18/26) received ondansetron 24 mg IV.

hERG-related current = conditions: at 10 μg/mL; ref data on file, Celgene Corporation; cited from earlier work
clinical = conditions: human, plasma, intravenous
patients = conditions: early clinical development, across several studies; cited from earlier work
[3] = system: patients with advanced malignancy; assay: centrally read ECG analysis (QTcF, PR, QRS, heart rate) in patients with advanced malignancy
Experimental: All patients provided written informed consent.
PK/PD modeling is not reported as it was not possible to account for the possible effects of coadministered antiemetics and the absence of closely collected ECGs during times of PK sampling when rapid changes in the plasma concentrations occurred. For the central tendency and categorical analyses, the mean of the three replicates was used. All paper ECGs were analyzed by a core central ECG laboratory (Duke Clinical Research Institute [DCRI], Durham, NC) in a fully blinded fashion. A DCRI technician marked the fiducial points on each ECG tracing and, using a digital caliper, measured the QT, PR, RR, and QRS intervals. All ECGs were over read by a DCRI cardiologist for verification of the interval measurements.

Structure (SMILES): Cc1nccn1CC1CCc2c(c3ccccc3n2C)C1=O (stereo not shown) [ondansetron]
- increase in QTc at 4 h [1]: ≈ 6 msec
- initial increase in QTc [1]: ≈ 20 msec
- QTc effect at 4 h [2]: < 5 ms

Structure (SMILES): C/C=C1\NC(=O)[C@H]2CSSCC/C=C/[C@H](CC(=O)N[C@H](C(C)C)C(=O)N2)OC(=O)[C@H](C(C)C)NC1=O [romidepsin]
- inhibition of hERG-related current (hERG-related current): 37%
- AUC(0-inf) (clinical; 8 mg/m^2): 1350 ng·h/mL
- Cmax (clinical; 8 mg/m^2): 1110 ng/mL
- half-life (clinical; 8 mg/m^2): 289 min
- Cmax (clinical; 10 mg/m^2): 1480 ng/mL
- half-life (clinical; 10 mg/m^2): 296 min
- AUC(0-inf) (clinical; 12 mg/m^2): 3010 ng·h/mL
- Cmax (clinical; 12 mg/m^2): 2090 ng/mL
- half-life (clinical; 12 mg/m^2): 259 min
- AUC(0-inf) (clinical; 14 mg/m^2): 3070 ng·h/mL
- Cmax (clinical; 14 mg/m^2): 780 ng/mL
- half-life (clinical; 14 mg/m^2): 222 min
- patients with sudden death (patients): six
- upper 90% CI of maximal mean QTcF increase from preantiemetic baseline ([3]; 14 mg/m^2 4-h infusion, at 0.25 h postinitiation): 14.5 ms
- increase in heart rate ([3]; human, in vivo): ≈ 20 bpm
- patients with absolute QTcF value >450 msec ([3]; human, in vivo): No patient

Source: article PMC4559029 (Cancer Medicine, 2015)
